Data on one compound can be found in ChEMBL document CHEMBL2074366, “Secretion of sparfloxacin from the human intestinal Caco-2 cell line is altered by P-glycoprotein inhibitors” (Antimicrob Agents Chemother, 1998).

This data set concerns the target ATP-dependent translocase ABCB1 (Homo sapiens, UniProt P08183). The experiment in a line: TP_TRANSPORTER: transepithelial transport (basal to apical) in Caco-2 cells. Type of data set: functional, cell-based.

Sequence of ATP-dependent translocase ABCB1 (P08183 whole entry): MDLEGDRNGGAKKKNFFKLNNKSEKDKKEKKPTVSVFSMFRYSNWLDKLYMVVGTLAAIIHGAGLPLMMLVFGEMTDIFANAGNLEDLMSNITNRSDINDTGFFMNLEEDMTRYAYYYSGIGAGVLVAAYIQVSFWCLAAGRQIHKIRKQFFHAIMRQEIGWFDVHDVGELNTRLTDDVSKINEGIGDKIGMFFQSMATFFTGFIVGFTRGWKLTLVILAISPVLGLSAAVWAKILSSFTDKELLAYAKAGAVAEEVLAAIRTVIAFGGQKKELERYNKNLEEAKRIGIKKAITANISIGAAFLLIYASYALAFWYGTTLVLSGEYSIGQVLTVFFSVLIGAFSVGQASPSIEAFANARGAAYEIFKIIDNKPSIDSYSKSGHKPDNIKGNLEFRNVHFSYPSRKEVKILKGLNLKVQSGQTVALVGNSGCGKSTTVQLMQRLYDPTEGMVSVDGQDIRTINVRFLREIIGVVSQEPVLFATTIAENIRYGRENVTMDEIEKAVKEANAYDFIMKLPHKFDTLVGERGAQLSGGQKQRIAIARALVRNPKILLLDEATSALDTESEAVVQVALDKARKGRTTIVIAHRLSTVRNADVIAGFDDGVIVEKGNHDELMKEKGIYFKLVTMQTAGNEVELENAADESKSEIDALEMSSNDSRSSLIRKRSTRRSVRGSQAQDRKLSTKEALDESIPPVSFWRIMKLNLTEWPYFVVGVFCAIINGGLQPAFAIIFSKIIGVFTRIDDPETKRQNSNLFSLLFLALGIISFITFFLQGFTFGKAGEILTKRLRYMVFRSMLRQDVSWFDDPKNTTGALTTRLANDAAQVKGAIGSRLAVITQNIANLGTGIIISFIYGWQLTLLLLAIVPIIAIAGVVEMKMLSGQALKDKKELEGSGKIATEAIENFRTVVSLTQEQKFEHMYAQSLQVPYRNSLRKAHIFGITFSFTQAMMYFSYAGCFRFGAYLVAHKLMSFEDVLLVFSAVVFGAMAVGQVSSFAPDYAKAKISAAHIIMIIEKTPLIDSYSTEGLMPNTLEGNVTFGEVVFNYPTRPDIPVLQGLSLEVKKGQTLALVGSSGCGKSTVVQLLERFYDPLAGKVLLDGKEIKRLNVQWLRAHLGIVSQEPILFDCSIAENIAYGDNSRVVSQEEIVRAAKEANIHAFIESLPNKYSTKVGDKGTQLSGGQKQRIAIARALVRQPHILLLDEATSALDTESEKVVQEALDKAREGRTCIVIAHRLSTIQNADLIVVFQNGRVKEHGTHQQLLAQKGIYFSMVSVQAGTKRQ

Turning to `C[C@@H]1CN(c2c(F)c(N)c3c(=O)c(C(=O)O)cn(C4CC4)c3c2F)C[C@H](C)N1` [SPARFLOXACIN], the Activity result was “substrate [+]”.
